Laboratory results: the NIST ThermoML archive (doi:10.1007/s10765-011-1087-7)

Experiments:
[1] = refractive index (Na D-line) (dimensionless); xn = mol fraction of the nth substance listed; conditions: 101 kPa, Liquid
[2] = xn = mol fraction of the nth substance listed; conditions: 101 kPa, Liquid; for speed of sound: Pulse-echo method

Clc1ccc(Cl)c(Cl)c1 [1,2,4-trichlorobenzene] + CCCCCCC(C)O
Conditions	mass density, [2] [kg/m3]	refractive index, [1]	speed of sound, [2] [m/s]	viscosity, [2] [mPa·s]
298.15 K, x1 = 0.0762	863.97	1.4309	1301.7	5.912
298.15 K, x1 = 0.1303	896.31	1.4366	1296.7	5.452
298.15 K, x1 = 0.2045	939.57	1.4436	1290.1	4.912
298.15 K, x1 = 0.2713	977.28	1.4501	1283.7	4.455
298.15 K, x1 = 0.3461	1018.61	1.4569	1278	3.981
298.15 K, x1 = 0.4173	1057.62	1.4631	1273.2	3.575
298.15 K, x1 = 0.4857	1095.63	1.4698	1269.8	3.223
298.15 K, x1 = 0.5454	1129.39	1.4758	1267	2.955
298.15 K, x1 = 0.6115	1167.72	1.4834	1264.2	2.699
298.15 K, x1 = 0.6798	1209.26	1.4919	1261.9	2.462
298.15 K, x1 = 0.7466	1252.54	1.5009	1259.9	2.281
298.15 K, x1 = 0.8183	1302	1.5119	1259.2	2.118
298.15 K, x1 = 0.8713	1341.45	1.521	1260.4	2.035
298.15 K, x1 = 0.9361	1392.95	1.534	1264.2	1.945
298.15 K, x1 = 1	1448.41	1.548	1272	1.926
303.15 K, x1 = 0.0762	860.11	1.4285	1283.9	4.79
303.15 K, x1 = 0.1303	892.4	1.4337	1279.1	4.507
303.15 K, x1 = 0.2045	935.51	1.4406	1273	4.124
303.15 K, x1 = 0.2713	973.11	1.4469	1266.9	3.783
303.15 K, x1 = 0.3461	1014.26	1.4539	1261.6	3.433
303.15 K, x1 = 0.4173	1053.06	1.4607	1256.9	3.12
303.15 K, x1 = 0.4857	1090.83	1.4676	1253.5	2.849
303.15 K, x1 = 0.5454	1124.39	1.474	1250.5	2.632
303.15 K, x1 = 0.6115	1162.51	1.4818	1248	2.405
303.15 K, x1 = 0.6798	1203.8	1.4905	1245.6	2.205
303.15 K, x1 = 0.7466	1246.93	1.4999	1244.1	2.045
303.15 K, x1 = 0.8183	1296.19	1.511	1243.5	1.909
303.15 K, x1 = 0.8713	1335.49	1.5202	1244.9	1.821
303.15 K, x1 = 0.9361	1386.92	1.5329	1248.7	1.769
303.15 K, x1 = 1	1442.43	1.546	1256.4	1.76
308.15 K, x1 = 0.0762	855.92	1.4271	1266.3	3.886
308.15 K, x1 = 0.1303	887.97	1.4325	1261.9	3.674
308.15 K, x1 = 0.2045	930.81	1.4396	1255.8	3.413
308.15 K, x1 = 0.2713	968.5	1.4459	1250.3	3.169
308.15 K, x1 = 0.3461	1009.82	1.4525	1244.9	2.915
308.15 K, x1 = 0.4173	1048.71	1.4591	1240.3	2.674
308.15 K, x1 = 0.4857	1086.14	1.4658	1237.1	2.456
308.15 K, x1 = 0.5454	1119.57	1.4718	1234.6	2.296
308.15 K, x1 = 0.6115	1157.41	1.4792	1232	2.117
308.15 K, x1 = 0.6798	1198.89	1.4877	1229.9	1.961
308.15 K, x1 = 0.7466	1241.6	1.4969	1228.4	1.827
308.15 K, x1 = 0.8183	1290.6	1.5078	1228	1.725
308.15 K, x1 = 0.8713	1329.97	1.517	1229.3	1.666
308.15 K, x1 = 0.9361	1381.4	1.5295	1233.4	1.628
308.15 K, x1 = 1	1436.45	1.543	1240.9	1.617

CCCCCCC(C)O (stereo unspecified) [2-octanol] + Clc1cccc(Cl)c1
Conditions	mass density, [2] [kg/m3]	refractive index, [1]	speed of sound, [2] [m/s]	viscosity, [2] [mPa·s]
298.15 K, x2 = 0	–	–	–	6.566
298.15 K, x2 = 0.0694	840.61	1.4312	1300.1	5.146
298.15 K, x2 = 0.1166	857.54	1.4366	1295.8	4.43
298.15 K, x2 = 0.1823	881.65	1.4436	1290	3.7
298.15 K, x2 = 0.2395	903.41	1.4494	1285.1	3.231
298.15 K, x2 = 0.3143	932.89	1.4567	1278.7	2.754
298.15 K, x2 = 0.379	959.33	1.4631	1273.3	2.429
298.15 K, x2 = 0.4488	988.41	1.4698	1268	2.138
298.15 K, x2 = 0.5084	1014.16	1.4758	1263.7	1.934
298.15 K, x2 = 0.582	1047.42	1.4838	1258.9	1.715
298.15 K, x2 = 0.6659	1086.85	1.4939	1254.6	1.505
298.15 K, x2 = 0.7208	1114.21	1.5009	1252.4	1.394
298.15 K, x2 = 0.7847	1147.67	1.5099	1250.7	1.279
298.15 K, x2 = 0.8663	1194.04	1.5224	1250.4	1.151
298.15 K, x2 = 0.9434	1243.52	1.5349	1251.8	1.065
303.15 K, x2 = 0	–	–	–	5.178
303.15 K, x2 = 0.0694	836.24	1.4293	1282.4	4.351
303.15 K, x2 = 0.1166	852.87	1.4348	1278.1	3.821
303.15 K, x2 = 0.1823	876.71	1.4418	1272.3	3.246
303.15 K, x2 = 0.2395	898.21	1.4475	1267.5	2.847
303.15 K, x2 = 0.3143	927.45	1.4546	1261.2	2.412
303.15 K, x2 = 0.379	953.45	1.4608	1256.1	2.113
303.15 K, x2 = 0.4488	982.39	1.4677	1251	1.857
303.15 K, x2 = 0.5084	1007.74	1.4738	1246.9	1.679
303.15 K, x2 = 0.582	1040.69	1.4819	1242.3	1.51
303.15 K, x2 = 0.6659	1079.96	1.4921	1238.3	1.378
303.15 K, x2 = 0.7208	1107.42	1.4994	1236.2	1.302
303.15 K, x2 = 0.7847	1141.2	1.5084	1234.6	1.226
303.15 K, x2 = 0.8663	1187.75	1.5209	1234.2	1.14
303.15 K, x2 = 0.9434	1236.9	1.5327	1235.6	1.042
308.15 K, x2 = 0	–	–	–	4.162
308.15 K, x2 = 0.0694	832.14	1.4273	1264.6	3.517
308.15 K, x2 = 0.1166	848.59	1.4327	1260.1	3.17
308.15 K, x2 = 0.1823	871.91	1.4397	1254.2	2.759
308.15 K, x2 = 0.2395	892.9	1.4455	1249.6	2.463
308.15 K, x2 = 0.3143	920.82	1.4527	1243.5	2.119
308.15 K, x2 = 0.379	945.97	1.4589	1238.9	1.892
308.15 K, x2 = 0.4488	974.25	1.4658	1233.9	1.673
308.15 K, x2 = 0.5084	999.57	1.4718	1230.2	1.512
308.15 K, x2 = 0.582	1032.22	1.4798	1226	1.358
308.15 K, x2 = 0.6659	1071.96	1.4898	1221.9	1.207
308.15 K, x2 = 0.7208	1099.76	1.4969	1219.4	1.132
308.15 K, x2 = 0.7847	1134.17	1.5057	1217.9	1.05
308.15 K, x2 = 0.8663	1181.99	1.518	1217.3	0.956
308.15 K, x2 = 0.9434	1231.4	1.5298	1219.3	0.898
